Assay results: PubChem BioAssay (NCI)
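Briefly, cells in 96-well plates were exposed to five compound concentrations for 48 h, and endpoints were estimated by linear interpolation. TGI: total growth inhibition.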

Experiments:
Test in all cases: NCI-60 cell line screen, 48 h
[1] = test system: NCI-H23 lung
[2] = test system: SK-MEL-28 melanoma
[3] = test system: A498 renal
[4] = test system: BT-549 breast
[5] = test system: SK-MEL-5 melanoma
[6] = test system: CAKI-1 renal
[7] = test system: CCRF-CEM leukemia
[8] = test system: HL-60(TB) leukemia
[9] = test system: SNB-19 CNS
[10] = test system: K-562 leukemia
[11] = test system: NCI-H460 lung
[12] = test system: SF-539 CNS
[13] = test system: HT29 colon
[14] = test system: MDA-MB-435
[15] = test system: HOP-62 NSCLC
[16] = test system: EKVX NSCLC
[17] = test system: SW-620 colon
[18] = test system: HCT-116 colon
[19] = test system: OVCAR-8 ovarian
[20] = test system: OVCAR-5 ovarian
[21] = test system: UACC-257 melanoma
[22] = test system: HCC-2998 colon
[23] = test system: RXF 393 renal
[24] = test system: 786-0 renal
[25] = test system: KM12 colon
[26] = test system: RPMI-8226 leukemia
[27] = test system: A549 NSCLC
[28] = test system: COLO 205 colon
[29] = test system: TK-10 renal
[30] = test system: SK-MEL-2 melanoma
[31] = test system: MALME-3M melanoma
[32] = test system: NCI/ADR-RES ovarian
[33] = test system: SNB-75 CNS
[34] = test system: OVCAR-3 ovarian
[35] = test system: PC-3 prostate
[36] = test system: SF-268 CNS
[37] = test system: NCI-H522 lung
[38] = test system: HCT-15 colon
[39] = test system: SF-295 CNS
[40] = test system: MCF7 breast
[41] = test system: MOLT-4 leukemia
[42] = test system: SK-OV-3 ovarian
[43] = test system: HS 578T breast
[44] = test system: UO-31 renal
[45] = test system: ACHN renal
[46] = test system: T-47D breast
[47] = test system: M14 melanoma
[48] = test system: OVCAR-4 ovarian
[49] = test system: U251 CNS
[50] = test system: DU-145 prostate
[51] = test system: HOP-92 NSCLC
[52] = test system: IGROV1 ovarian
[53] = test system: SN12C renal
[54] = test system: LOX IMVI melanoma
[55] = test system: SR leukemia
[56] = test system: MDA-MB-231 breast
[57] = test system: NCI-H226 lung
[58] = test system: UACC-62 melanoma

COc1cc(C2C3=C(NC(=O)C2C#N)c2ccc4ccccc4c2OCC3)cc(OC)c1OC (centres undefined)
TGI [1]: > 100 µM
TGI [2]: > 100 µM
TGI [3]: 44 µM
TGI [4]: 42.9 µM
TGI [5]: > 100 µM
TGI [6]: 45.7 µM
TGI [7]: > 100 µM
TGI [8]: > 100 µM
TGI [9]: > 100 µM
TGI [10]: > 100 µM
TGI [11]: > 100 µM
TGI [12]: 42.3 µM
TGI [13]: > 100 µM
TGI [14]: > 100 µM
TGI [15]: 50.5 µM
TGI [16]: > 100 µM
TGI [17]: > 100 µM
TGI [18]: 29.1 µM
TGI [19]: > 100 µM
TGI [20]: 42.3 µM
TGI [21]: > 100 µM
TGI [22]: 65.2 µM
TGI [23]: 32.9 µM
TGI [24]: > 100 µM
TGI [25]: > 100 µM
TGI [26]: > 100 µM
TGI [27]: > 100 µM
TGI [28]: 33.1 µM
TGI [29]: > 100 µM
TGI [30]: 59.4 µM
TGI [31]: 72.5 µM
TGI [32]: > 100 µM
TGI [33]: 34.5 µM
TGI [34]: > 100 µM
TGI [35]: > 100 µM
TGI [36]: 64.1 µM
TGI [37]: > 100 µM
TGI [38]: > 100 µM
TGI [39]: > 100 µM
TGI [40]: > 100 µM
TGI [41]: > 100 µM
TGI [42]: 62.4 µM
TGI [43]: 68.1 µM
TGI [44]: 28.3 µM
TGI [45]: 30.2 µM
TGI [46]: 62.5 µM
TGI [47]: > 100 µM
TGI [48]: > 100 µM
TGI [49]: 30.4 µM
TGI [50]: > 100 µM
TGI [51]: 29.7 µM
TGI [52]: 36.9 µM
TGI [53]: 38.9 µM

c1ccc2c(c1)ccc1cc3cc(NCCCCNc4ccc5nc6c(ccc7ccccc76)cc5c4)ccc3nc12
TGI [3]: 2.43 µM
TGI [4]: 4.06 µM
TGI [5]: 2.67 µM
TGI [6]: 3.54 µM
TGI [7]: 2.29 µM
TGI [10]: 3.55 µM
TGI [11]: 0.53 µM
TGI [12]: 2.88 µM
TGI [54]: 3.43 µM
TGI [14]: 3.45 µM
TGI [17]: 0.405 µM
TGI [19]: 0.303 µM
TGI [21]: 3.11 µM
TGI [25]: 0.532 µM
TGI [26]: 1.48 µM
TGI [27]: 2.84 µM
TGI [29]: 3.18 µM
TGI [31]: 3.16 µM
TGI [55]: 0.043 µM
TGI [34]: 4.06 µM
TGI [35]: 2.67 µM
TGI [38]: 2.01 µM
TGI [39]: 3.03 µM
TGI [41]: 0.418 µM
TGI [42]: 6.34 µM
TGI [43]: 4.25 µM
TGI [45]: 2.68 µM
TGI [47]: 3.29 µM
TGI [49]: 0.374 µM
TGI [56]: 0.348 µM
TGI [50]: 2.67 µM
TGI [57]: 3.24 µM
TGI [58]: 3.04 µM
TGI [51]: 4.09 µM
TGI [52]: 2.99 µM
TGI [53]: 2.7 µM
